The assay has as its system C. elegans. The assay can be described thus: microbe, parasite or virus in culture. Conditions: Caenorhabditis elegans.
Where [1] appears, read: 0 h, read-out: Percentage of motility inhibition 0 h, Table S2, C. elegans SS assay, 110 μM, 0 h, averages of 4 data points.
[2] abbreviates: 24 h, read-out: Percentage of motility inhibition 24 h, Table S2, C. elegans SS assay, 110 μM, 24 h, averages of 4 data points.
Where [3] appears, read: 0 h, read-out: Percentage of motility inhibition 0 h.
The mark [4] stands for this setting: 24 h, read-out: Percentage of motility inhibition 24 h.

Read-outs that look alike come from different tables or passages of the source.

As for `Cc1cc(C2CCCCC2)n(O)c(=O)c1` [Ciclopirox], the inhibition at 110 µM under setting [1] was 42% and the inhibition at 110 µM under setting [2] was 41%. On to `COc1cc(O)c2c(=O)cc(-c3ccc(O)cc3)oc2c1` [Genkwanin], for which the inhibition at 110 µM runs as follows: under setting [1], 34%; under setting [2], 4%. For the compound `O=c1cc(-c2ccccc2)oc2cccc(O)c12` [5‐Hydroxyflavone], the inhibition at 110 µM is 12% under setting [1] and 21% under setting [2]. Taken in the same sequence, the figures for `Nc1ccc(S(N)(=O)=O)cc1` [Sulfanilamide] were 21% and 7%. On the same counts, the results for `COC(=O)c1ccccc1O` [Methyl Salicylate] are 21% and 12%. On the same counts, the results for `COC(=O)C1=CO[C@@H](O[C@@H]2O[C@H](CO)[C@@H](O)[C@H](O)[C@H]2O)[C@@H]2[C@H](C)O[C@@H](O)C[C@H]12` [Morroniside] are 5% and 42%. `CC(=O)N1CCN(c2ccc(OCC3COC(Cn4ccnc4)(c4ccc(Cl)cc4Cl)O3)cc2)CC1` (stereo not shown) [Ketoconazole]: the inhibition at 110 µM under setting [1] is 13% and the inhibition at 110 µM under setting [2] stood at 0%. Taken in the same sequence, the figures for `COc1ccc2c(O[C@@H]3C[C@H]4C(=O)N[C@]5(C(=O)NS(=O)(=O)C6CC6)C[C@H]5/C=C\CCCCN(C)C(=O)[C@@H]4C3)cc(-c3nc(C(C)C)cs3)nc2c1C` [Simeprevir] were 2% and 25%. Consider `COc1ccc(C(C)=O)c(O)c1` [Paeonol], for which the inhibition at 110 µM under setting [3] is 0% and the inhibition at 110 µM under setting [4] came out at 0%. Turning to `CC(C)=CCCC(C)CCO` (stereo not shown) [Citronellol], the inhibition at 110 µM is, setting by setting: under setting [1], 15%; under setting [2], 28%. Take `C=CCOC(Cn1ccnc1)c1ccc(Cl)cc1Cl` (stereo not shown) [Imazalil]: the inhibition at 110 µM stood at 35% under setting [1] and 36% under setting [2]. Taken in the same sequence, the figures for `COc1ccc(C(=O)O[C@H]2CC[C@@]3(C)[C@@H]4CC[C@H]5[C@]6(O)C[C@H](O)[C@@]7(O)[C@@H](CN8C[C@@H](C)CC[C@H]8[C@@]7(C)O)[C@]6(O)C[C@@]53O[C@]24O)cc1OC` [Veratridine] were 4% and 0%. Taken in the same sequence, the figures for `CC(C)(C)C#Cc1cc(N(C(=O)[C@H]2CC[C@H](C)CC2)[C@H]2CC[C@H](O)CC2)c(C(=O)O)s1` [VX‐222] were 48% and 57%.

Consider `C=C(C)[C@H](CC=C(C)C)Cc1c(O)cc(OC)c2c1O[C@H](c1ccc(O)cc1O)CC2=O` [Kurarinone], for which the inhibition at 110 µM is, setting by setting: under setting [1], 0%; under setting [2], 0%. In the case of `COc1ccc(-c2oc3c(CC=C(C)C)c(O[C@@H]4O[C@H](CO)[C@@H](O)[C@H](O)[C@H]4O)cc(O)c3c(=O)c2O[C@@H]2O[C@@H](C)[C@H](O)[C@@H](O)[C@H]2O)cc1` [Icariin], the inhibition at 110 µM under setting [3] is 30% and the inhibition at 110 µM under setting [4] stood at 12%. Turning to `Cc1cccc(C)c1NC(=O)c1ccccc1C(=O)O` [Ftaxilide], the inhibition at 110 µM is 18% under setting [1] and 10% under setting [2]. Consider `O=C(C1CCCCC1)N1CC(=O)N2CCc3ccccc3C2C1` (stereo not shown) [Praziquantel], for which the inhibition at 110 µM under setting [1] was found to be 27% and the inhibition at 110 µM under setting [2] came out at 0%.

Regarding `C=C(C)[C@H](C)c1cc(/C=C/C(=O)c2ccc(O)cc2)c(OC)cc1O` [Licochal cone E], the inhibition at 110 µM worked out at 5% under setting [1] and 0% under setting [2]. Taken in the same sequence, the figures for `COC(=O)Nc1nc2ccc([S+]([O-])c3ccccc3)cc2[nH]1` (stereo not shown) [Oxfendazole] were 12% and 5%.

For `O=c1c(-c2ccc(O)cc2)coc2cc(O[C@@H]3O[C@H](CO)[C@@H](O)[C@H](O)[C@H]3O)cc(O)c12` [Genistin], the inhibition at 110 µM runs as follows: under setting [1], 29%; under setting [2], 19%. Taken in the same sequence, the figures for `CO[C@H]1/C=C/O[C@@]2(C)Oc3c(C)c(O)c4c(O)c(c(/C=N/N5CCN(C6CCCC6)CC5)c(O)c4c3C2=O)NC(=O)/C(C)=C\C=C\[C@H](C)[C@H](O)[C@@H](C)[C@@H](O)[C@@H](C)[C@H](OC(C)=O)[C@@H]1C` [Rifapen tine] were 9% and 13%. In the case of `OCC1=C[C@@H](O)[C@@H]2C=CO[C@@H](O[C@@H]3O[C@H](CO)[C@@H](O)[C@H](O)[C@H]3O)[C@H]12` [Aucubin], the inhibition at 110 µM reads like this: under setting [1], 10%; under setting [2], 19%. Taken in the same sequence, the figures for `CCCOc1ccc2nc(NC(=O)OC)[nH]c2c1` [Oxibendazole] were 17% and 28%.

For the compound `C[C@H](CCC(=O)O)[C@H]1CC[C@H]2[C@@H]3[C@H](O)C[C@@H]4C[C@H](O)CC[C@]4(C)[C@H]3CC[C@]12C` [Chenodeoxycholic Acid], the inhibition at 110 µM was determined as 0% under setting [1] and 5% under setting [2]. For `CC(C)=CCC[C@](C)(O[C@@H]1O[C@H](CO[C@@H]2O[C@H](CO)[C@@H](O)[C@H](O)[C@H]2O)[C@@H](O)[C@H](O)[C@H]1O)[C@H]1CC[C@]2(C)[C@@H]1[C@H](O)C[C@@H]1[C@@]3(C)CC[C@H](O[C@@H]4O[C@H](CO)[C@@H](O)[C@H](O)[C@H]4O[C@@H]4O[C@H](CO)[C@@H](O)[C@H](O)[C@H]4O)C(C)(C)[C@@H]3CC[C@]12C` [Ginsenoside Rb1], the inhibition at 110 µM stood at 4% under setting [1] and 0% under setting [2]. On the same counts, the results for `Cc1cc(/C=C/C#N)cc(C)c1Nc1ccnc(Nc2ccc(C#N)cc2)n1` [Rilpivirine] are 32% and 20%. On the same counts, the results for `COc1cc(O)c2c(=O)cc(-c3ccc(OC)c(-c4c(O)cc(O)c5c(=O)cc(-c6ccc(O)cc6)oc45)c3)oc2c1` [Ginkgetin] are 13% and 16%. On to `COc1cc(-c2cc(=O)c3c(O)cc(O)cc3o2)cc(OC)c1O` [Tricin], for which the inhibition at 110 µM is, setting by setting: under setting [1], 31%; under setting [2], 2%. Taken in the same sequence, the figures for `C[C@@H]1O[C@@H](OC[C@H]2O[C@@H](Oc3c(-c4ccc(O)cc4)oc4cc(O)cc(O)c4c3=O)[C@H](O[C@@H]3O[C@H](CO)[C@H](O)[C@H](O)[C@H]3O)[C@@H](O)[C@@H]2O)[C@H](O)[C@H](O)[C@H]1O` [Camelliaside A] were 9% and 10%. Regarding `Oc1ccc2[nH]ccc2c1` [5‐Hydroxyindole], the inhibition at 110 µM by setting is: under setting [1], 28%; under setting [2], 9%. On the same counts, the results for `C=C(C)[C@H](CC=C(C)C)Cc1c(O)cc(O)c2c1O[C@H](c1ccccc1O)CC2=O` [Kushenol A] are 14% and 10%. For `CN1CCc2cc3c(cc2[C@H]1[C@@H]1OC(=O)c2c1ccc1c2OCO1)OCO3` [Bicuculline], the inhibition at 110 µM reads like this: under setting [1], 0%; under setting [2], 8%. Taken in the same sequence, the figures for `O=P(O)(O)OC(Cn1cncn1)(Cn1cncn1)c1ccc(F)cc1F` [Fosfluconazole] were 17% and 0%. Taken in the same sequence, the figures for `C=C1C(=O)[C@@]23[C@@H]4OC5O[C@@]2(O)[C@@H](O)[C@@H]2C(C)(C)CC[C@@H](O)[C@]52[C@@H]3CC[C@@H]14` [Ponicidin] were 4% and 0%. On the same counts, the results for `O=C(O)[C@H]1C2CCC(CC2)[C@@H]1Nc1nc(-c2c[nH]c3ncc(F)cc23)ncc1F` [Pimodivir] are 7% and 9%.

For the compound `C/C1=C\C[C@]2(C(C)C)CC[C@@](C)(O2)[C@@H](O)CC/C(C)=C/CC1` [Incensole], the inhibition at 110 µM came out at 2% under setting [1] and 29% under setting [2]. As to `O=C1Nc2ccccc2/C1=C1/Nc2ccccc2C1=O` [Indirubin], the inhibition at 110 µM under setting [2] came to 6%. For `Cc1nc(C)c(Cl)c(O)c1Cl` [Clopidol], the inhibition at 110 µM was 7% under setting [1] and 11% under setting [2]. Consider `COc1ccc(-c2coc3cc(O[C@@H]4O[C@H](CO)[C@@H](O)[C@H](O)[C@H]4O)ccc3c2=O)cc1` [Ononin], for which the inhibition at 110 µM by setting is: under setting [1], 10%; under setting [2], 0%.

Regarding `CC(=O)O[C@@]12CO[C@@H]1C[C@H](O)[C@@]1(C)C(=O)[C@H](O)C3=C(C)[C@@H](OC(=O)[C@H](O)[C@@H](NC(=O)OC(C)(C)C)c4ccccc4)C[C@@](O)([C@@H](OC(=O)c4ccccc4)[C@H]21)C3(C)C` [Docetaxel], the inhibition at 110 µM is, setting by setting: under setting [1], 1%; under setting [2], 15%. On the same counts, the results for `C[C@@H]1O[C@@H](O[C@H]2[C@H](O[C@H]3CO[C@@H](O[C@H]4CC[C@]5(C)[C@H]6CC[C@]78OC[C@@]9(CC[C@](C)(C=O)C[C@H]97)[C@H](O)C[C@@]8(C)[C@]6(C)CC[C@H]5C4(C)C)[C@H](O[C@@H]4O[C@H](CO)[C@@H](O)[C@H](O)[C@H]4O)[C@H]3O)O[C@H](CO)[C@@H](O)[C@@H]2O)[C@H](O)[C@H](O)[C@H]1O` [Ardisiacrispin B] are 16% and 0%.

As to `C[C@]12CC[C@@H]3c4ccc(O)cc4CC[C@H]3[C@@H]1CCC2=O` [Estrone], the inhibition at 110 µM runs as follows: under setting [1], 32%; under setting [2], 0%. Taken in the same sequence, the figures for `Cc1onc(-c2ccccc2)c1C(=O)N1CCN(c2ccc([N+](=O)[O-])cc2Cl)CC1` [Nucleozin] were 17% and 8%. On the same counts, the results for `CC[C@H](C)[C@H](N)C(=O)O` [L-Isoleucine] are 14% and 17%. Taken in the same sequence, the figures for `COc1c(OC)c2nccc3c4ccccc4n(c1=O)c23` [4,5‐Dimethoxycanthin‐6‐one] were 0% and 22%.

For `CC1=CC(=O)c2ccccc2C1=O` [Menadione], the inhibition at 110 µM was determined as 0% under setting [1] and 0% under setting [2].
